# From patent publication US9663528B2, “Substituted 1,2,3,4,6,8,12,12a-octahydro-1,4-methanodipyrido[1,2-a:1',2'-d]pyrazines and methods for treating viral infections” (priority 2012, dated 2017)
# Columns and labels:
# in vitro = conditions: human, CC50 nM in MT-4
# PXR = PXR (Homo sapiens (Human), UniProt O75469); experiment: Human PXR activation assay (luciferase reporter gene assay, DPX2 cells); format: cell-based; conditions: human
# Experimental: A stably transformed tumor cell line (DPX2) was plated on 96-well microtiter plates. DPX2 cells harbor the human PXR gene (NR112) and a luciferase reporter gene linked to two promoters identified in the human CYP3A4 gene, namely XREM and PXRE. […] The number of viable cells was determined and the reporter gene activity was assessed. Positive control: […]
# [1] = Pharmacokinetic analysis following intravenous administration to beagle dogs; format: in vivo; conditions: male, dog, 0.5 mg/kg; for MRT / clearance: beagle, in vivo, iv; for Vd: plasma, beagle dogs, IV infusion over 30 min, read-out: Vss
# Experimental: Pharmacokinetic analysis was performed on various test compounds following intravenous or oral administration to beagle dogs.
# For pharmacokinetic analysis of intravenously administered compounds, the test compounds were formulated in 5% Ethanol, 55% PEG 300, and 40% water at 0.1 mg/mL for IV infusion. For pharmacokinetic analysis of orally administered compounds, the test compounds were formulated as an aqueous suspension in 0.1% Tween 20, 0.5% HPMC LV 100 in Di Water at 1 mg/kg.
# Each dosing group consisted of 3 male, non-naïve purebred beagle dogs. At dosing, the animals weighed between 10 to 13 kg. The animals were fasted overnight prior to dose administration and up to 4 hr after dosing. For studies of intravenous administration, the test article was administered to the animals by intravenous infusion over 30 min. The rate of infusion was adjusted according to the body weight of each animal to deliver a dose of 0.5 mg/kg. For studies of oral administration, the test article was administered according to the body weight of each animal to deliver a dose of 1 mg/kg.
# For pharmacokinetic analysis of intravenously administered compounds, serial venous blood samples (approximately 1 mL each) were taken from each animal at 0, 0.250, 0.483, 0.583, 0.750, 1.00, 1.50, 2.00, 4.00, 8.00, 12.0, and 24.0 hours after dosing. The blood samples were collected into Vacutainer™ tubes containing EDTA-K2 as the anti-coagulant and were immediately placed on wet ice pending centrifugation for plasma. An LC/MS/MS method was used to measure the concentration of the test compound in plasma. An aliquot of 100 μL of each plasma sample was added to a clean 96 well plate, and 400 μL of cold acetonitrile/internal standard solution (ACN)/(ISTD) was added. After protein precipitation, an aliquot of 110 μL of the supernatant was transferred to a clean 96-well plate and diluted with 300 μL of water. An aliquot of 25 μL of the above solution was injected into a TSQ Quantum Ultra LC/MS/MS system utilizing a Hypersil Gold C18 HPLC column (50×3.0 mm, 5 μm; Thermo-Hypersil Part #25105-053030). An Agilent 1200 series binary pump (P/N G1312A Bin Pump) was used for elution and separation, and an HTS Pal autosampler (LEAP Technologies, Carrboro, N.C.) was used for sample injection. A TSQ Quantum Ultra triple quadrupole mass spectrometer was utilized in selective reaction monitoring mode (Thermo Finnigan, San Jose, Calif.). Liquid chromatography was performed using two mobile phases: mobile phase A contained 1% acetonitrile in 2.5 mM ammonium formate aqueous solution with pH of 3.0, and mobile phase B contained 90% acetonitrile in 10 mM ammonium formate with pH of 4.6. Non-compartmental pharmacokinetic analysis was performed on the plasma concentration-time data. The resulting data are shown in the first three columns of Table 4. In Table 4, CL refers to clearance, which characterizes the rate at which drug is removed from plasma. The lower the clearance of a drug is, the longer the elimination half-life is in the body. Vss refers to the steady state volume of distribution and indicates how well a drug is distributed into the tissues. The larger the Vss is, the longer the elimination half-life is in the body. MRT refers to mean residence time, which is a measure of the average time molecules exist in the body.
# PXR, sequence (O75469 whole entry): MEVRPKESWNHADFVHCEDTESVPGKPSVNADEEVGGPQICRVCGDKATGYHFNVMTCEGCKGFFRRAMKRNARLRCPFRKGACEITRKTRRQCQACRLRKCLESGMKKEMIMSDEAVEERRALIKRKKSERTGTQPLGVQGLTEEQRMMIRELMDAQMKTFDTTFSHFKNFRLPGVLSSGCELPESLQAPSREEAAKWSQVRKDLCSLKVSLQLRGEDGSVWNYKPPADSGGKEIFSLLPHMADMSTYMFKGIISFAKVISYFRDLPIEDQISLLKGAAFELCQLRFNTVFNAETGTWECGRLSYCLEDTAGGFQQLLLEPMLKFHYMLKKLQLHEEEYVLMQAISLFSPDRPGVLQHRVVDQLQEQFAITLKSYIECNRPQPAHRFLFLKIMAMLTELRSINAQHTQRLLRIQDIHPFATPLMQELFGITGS
SMILES,CC50 at 5 days (in vitro) [nM],"Emax at 24 h, 15 µM (PXR) [%]",MRT [1] [h],clearance [1] [mL/min/kg],Vd [1] [L/kg]
"O=C(NCc1ccc(F)cc1F)c1cn2c(c(O)c1=O)C(=O)N1C(C2)O[C@H]2CCC[C@@H]1C2 (stereo partly drawn) [Compound 7, (2S,6R)-N-(2,4-difluorobenzyl)-9-hydroxy-8,10-dioxo-3,4,5,6,8,10,14,14a-octahydro-2H-2,6-methanopyrido[1′,2′:4,5]pyrazino[2,1-b][1,3]oxazocine-11-carboxamide]",15600,6,2.3,8.5,1.2
"O=C(NCc1ccc(F)cc1F)c1cn2c(c(O)c1=O)C(=O)N1C(C2)O[C@@H]2CCC[C@H]1C2 (stereo partly drawn) [Compound 8, (2R,6S)-N-(2,4-difluorobenzyl)-9-hydroxy-8,10-dioxo-3,4,5,6,8,10,14,14a-octahydro-2H-2,6-methanopyrido[1′,2′:4,5]pyrazino[2,1-b][1,3]oxazocine-11-carboxamide]",13900,7,1.8,8.3,0.87
"O=C(NCc1ccc(F)c(Cl)c1)c1cn2c(c(O)c1=O)C(=O)N1[C@H]3CC[C@H](C3)[C@@H]1C2 [Compound 75, (1R,4S,12aR)-N-(3-chloro-4-fluorobenzyl)-7-hydroxy-6,8-dioxo-1,2,3,4,6,8,12,12a-octahydro-1,4-methanodipyrido[1,2-a:1′,2′-d]pyrazine-9-carboxamide]",5290,0,,,
"O=C(NCc1cc(F)c(F)cc1F)c1cn2c(c(O)c1=O)C(=O)N1[C@H]3CC[C@H](C3)[C@@H]1C2 [Compound 79, (1R,4S,12aR)-7-hydroxy-6,8-dioxo-N-(2,4,5-trifluorobenzyl)-1,2,3,4,6,8,12,12a-octahydro-1,4-methanodipyrido[1,2-a:1′,2′-d]pyrazine-9-carboxamide]",12100,0,,,
"O=C(NCc1cc(Cl)c(F)cc1F)c1cn2c(c(O)c1=O)C(=O)N1[C@H]3CC[C@H](C3)[C@@H]1C2 [Compound 80, (1R,4S,12aR)-N-(5-chloro-2,4-difluorobenzyl)-7-hydroxy-6,8-dioxo-1,2,3,4,6,8,12,12a-octahydro-1,4-methanodipyrido[1,2-a:1′,2′-d]pyrazine-9-carboxamide]",5040,2,,,
"O=C(NCc1c(F)cc(F)cc1F)c1cn2c(c(O)c1=O)C(=O)N1[C@H](C2)[C@H]2C[C@H](F)[C@@H]1C2 [Compound 81, (1R,3S,4S,12aS)-3-fluoro-7-hydroxy-6,8-dioxo-N-(2,4,6-trifluorobenzyl)-1,2,3,4,6,8,12,12a-octahydro-1,4-methanodipyrido[1,2-a:1′,2′-d]pyrazine-9-carboxamide]",12300,1,,,
"C[C@@H]1C[C@H]2C[C@@H]1[C@@H]1Cn3cc(C(=O)NCc4c(F)cc(F)cc4F)c(=O)c(O)c3C(=O)N21 [Compound 84, (1S,2R,4S,12aR)-7-hydroxy-2-methyl-6,8-dioxo-N-(2,4,6-trifluorobenzyl)-1,2,3,4,6,8,12,12a-octahydro-1,4-methanodipyrido[1,2-a:1′,2′-d]pyrazine-9-carboxamide]",9730,21,,,
"O=C(NCc1c(F)cc(F)cc1F)c1cn2c(c(O)c1=O)C(=O)N1[C@H]3CCC[C@H](C3)[C@H]1C2 [Compound 85, (6aS,7R,11S)-1-hydroxy-2,13-dioxo-N-(2,4,6-trifluorobenzyl)-6,6a,7,8,9,10,11,13-octahydro-2H-7,11-methanopyrido[1′,2′:4,5]pyrazino[1,2-a]azepine-3-carboxamide]",10400,77,,,
"C[C@H]1C[C@@H]2C[C@H]1N1C(=O)c3c(O)c(=O)c(C(=O)NCc4c(F)cc(F)cc4F)cn3C[C@H]21 [Compound 86, (1R,3S,4R,12aS)-7-hydroxy-3-methyl-6,8-dioxo-N-(2,4,6-trifluorobenzyl)-1,2,3,4,6,8,12,12a-octahydro-1,4-methanodipyrido[1,2-a:1′,2′-d]pyrazine-9-carboxamide]",22400,30,,,
"O=C(NCc1cccc(Cl)c1F)c1cn2c(c(O)c1=O)C(=O)N1[C@H]3CC[C@H](C3)O[C@@H]1C2 [Compound 88, (2R,5S,13aR)-N-(3-chloro-2-fluorobenzyl)-8-hydroxy-7,9-dioxo-2,3,4,5,7,9,13,13a-octahydro-2,5-methanopyrido[1′,2′:4,5]pyrazino[2,1-b][1,3]oxazepine-10-carboxamide]",3230,27,,,
"O=C(NCc1cc(F)ccc1F)c1cn2c(c(O)c1=O)C(=O)N1[C@H]3CC[C@H](C3)O[C@@H]1C2 [Compound 89, (2R,5S,13aR)-N-(2,5-difluorobenzyl)-8-hydroxy-7,9-dioxo-2,3,4,5,7,9,13,13a-octahydro-2,5-methanopyrido[1′,2′:4,5]pyrazino[2,1-b][1,3]oxazepine-10-carboxamide]",4630,5,,,
"O=C(NCc1cccc(Cl)c1F)c1cn2c(c(O)c1=O)C(=O)N1[C@H]3CC[C@H](C3)[C@@H]1C2 [Compound 90, (1R,4S,12aR)-N-(3-chloro-2-fluorobenzyl)-7-hydroxy-6,8-dioxo-1,2,3,4,6,8,12,12a-octahydro-1,4-methanodipyrido[1,2-a:1′,2′-d]pyrazine-9-carboxamide]",8090,11,,,
"O=C(NCc1ccc(F)c(F)c1F)c1cn2c(c(O)c1=O)C(=O)N1[C@H]3CC[C@H](C3)[C@@H]1C2 [Compound 91, (1R,4S,12aR)-7-hydroxy-6,8-dioxo-N-(2,3,4-trifluorobenzyl)-1,2,3,4,6,8,12,12a-octahydro-1,4-methanodipyrido[1,2-a:1′,2′-d]pyrazine-9-carboxamide]",7180,3,,,
"O=C(NCc1ccc(Cl)cc1F)c1cn2c(c(O)c1=O)C(=O)N1[C@H]3CC[C@H](C3)[C@@H]1C2 [Compound 92, (1R,4S,12aR)-N-(4-chloro-2-fluorobenzyl)-7-hydroxy-6,8-dioxo-1,2,3,4,6,8,12,12a-octahydro-1,4-methanodipyrido[1,2-a:1′,2′-d]pyrazine-9-carboxamide]",4550,3,,,
"O=C(NCc1c(F)cc(F)cc1Cl)c1cn2c(c(O)c1=O)C(=O)N1[C@H]3CC[C@H](C3)[C@@H]1C2 [Compound 93, (1R,4S,12aR)-N-(2-chloro-4,6-difluorobenzyl)-7-hydroxy-6,8-dioxo-1,2,3,4,6,8,12,12a-octahydro-1,4-methanodipyrido[1,2-a:1′,2′-d]pyrazine-9-carboxamide]",6160,9,,,
"O=C(NCc1c(F)cc(F)cc1F)c1cn2c(c(O)c1=O)C(=O)N1[C@@H]3C[C@@H](C(F)C3F)[C@@H]1C2 (stereo partly drawn) [Compound 103, (1R,4R,12aR)-2,3-difluoro-7-hydroxy-6,8-dioxo-N-(2,4,6-trifluorobenzyl)-1,2,3,4,6,8,12,12a-octahydro-1,4-methanodipyrido[1,2-a:1′,2′-d]pyrazine-9-carboxamide]",35100,0,,,
